# Earlier results as cited in US9493512B2, “Solution phase processes for the manufacture of macrocyclic depsipeptides and new intermediates” (NOVARTIS AG, priority 2012, dated 2016).
# Molecular target: chymotrypsin (Bos taurus, UniProt P00766)
# Conditions: see J. Nat. Prod. 68(9), 1324-7 (2005); read-out: IC50 value, inhibition of chymotrypsin
smiles,measurement,value
CC(=O)N[C@@H](CCC(N)=O)C(=O)N[C@@H]1C(=O)N[C@@H](CC(C)C)C(=O)N[C@H]2CC[C@@H](O)N(C2=O)[C@@H](Cc2ccccc2)C(=O)N(C)[C@@H](Cc2ccc(O)cc2)C(=O)N[C@@H](C(C)C)C(=O)O[C@@H]1C [Nostopeptin (BN920)],IC50,31 nM
